We go through seven compounds from patent US7339059B2, “Benzofurans and indols” (Active Biotech AB, priority 2004, dated 2008).

One may read the IC50 as the concentration that inhibits the measured activity by half. As a reminder, the half-life is the time in which the quantity being followed falls by half. A high value points to slow loss. A word on the clearance: it is the rate of elimination divided by the concentration.

One data set addresses T1, CCR1 receptor (Homo sapiens, UniProt P32246).
T1 construct: host or cells: THP-1
T1 sequence (P32246 1-355): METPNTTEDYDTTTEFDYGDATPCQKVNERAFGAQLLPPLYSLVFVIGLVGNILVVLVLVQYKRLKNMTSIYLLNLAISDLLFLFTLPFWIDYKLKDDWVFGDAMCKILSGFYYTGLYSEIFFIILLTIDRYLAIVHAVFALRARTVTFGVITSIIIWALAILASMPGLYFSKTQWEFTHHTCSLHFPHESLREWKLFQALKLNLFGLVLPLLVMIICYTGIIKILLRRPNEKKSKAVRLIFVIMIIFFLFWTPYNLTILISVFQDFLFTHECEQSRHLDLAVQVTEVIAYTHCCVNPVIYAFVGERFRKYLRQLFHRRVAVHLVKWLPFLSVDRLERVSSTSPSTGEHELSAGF
Put plainly: In vitro Ca2+-flux assay on human monocytes (THP-1), MIP-1α stimulated. Format: cell-based. Conditions: block of MIP-1α induced Ca2+-flux in THP-1 cells; 2,5-dimethylpiperazine derivatives tested as racemic mixtures. As to the method:
The binding of Mip-1α at the CCR1 receptor leads to an increase of intracellular calcium levels. The ability of the compounds of the invention to block this biologic response of the CCR1 receptor is determined in the Ca^2+-flux assay.
In Vitro Ca^2+-Flux Assay on Human Monocytes
• 1. Cell Culture: • a) THP-1 (ATCC Cat# TIB202) • b) Tissue culture medium: RPMI 1640 with Ultraglutamine 1 supplemented with 10% (v/v) foetal calf serum. This medium is hereinafter referred to as “growth medium”. • 2. Assay buffer: HBSS (Hanks' balanced salts solution), 20 mM HEPES, 1 mM CaCl2, 1 mM MgCl2, 2.5 mM Probenecid, pH 7.4. • 3. Fluo-4AM (Molecular Probes Cat # F14201) • 4. Pluronic® F-127 (Molecular Probes Cat # P-6867) • 5. The compounds of the invention were dissolved in DMSO. A serial dilution was made and nine concentrations of each compound were screened to generate a dose curve from which the IC50 value was determined. • 6. MIP-1α (Peprotech EC Ltd Cat# 300-08) • 7. Victor^2 1420 (Perkin Elmer) • 8. Microlite™^2+ (Dynex Cat # 7572) Assay Procedure:
THP-1 cells were grown in T-75 cm^2 flasks in growth medium at 37° C. in 5% CO2. The cells were harvested by centrifugation and resuspended in assay buffer. The cells were then loaded with 5 μM Fluo-4 and 0.02% pluronic acid (final concentrations) at 37° C. in 5% CO2 for 30 min. The excess dye was removed by washing with assay buffer. The cells were resuspended and 10^5 cells/well were added in a Microlite plate containing compounds and then incubated for 15 minutes at 37° C. in 5% CO2. The cells were then stimulated with MIP-1α and changes in intracellular free Ca^2+ concentration were measured with a Victor^2.
Using the procedures set forth in the competitive affinity binding assay and the Ca^2+-flux assay, various compounds of the invention were tested for their ability to block Ca^2+-flux (IC50^Ca). The results of some examples and the Compounds A, B, C, and D are shown in Table 2 where all IC50-values are given in nM (nano Molar). Table 2 exemplifies the invention without limiting the scope thereof.

A short description of data set [1]: In vivo bioavailability in the mouse (cassette dosing). Conditions: female SJL/N Tac mice; for half-life / clearance: mouse, nominal dose 1 mg/kg; for half-life: plasma half-life; for clearance: plasma; for F: oral bioavailability, nominal dose 1 mg/kg iv and oral. As to the method: In Vivo Bioavailability in the Mouse
Female mice (SJL/N Tac) were given a single intravenous or oral dose of a mixture of 5 or 6 compounds per cassette (nominal dose: 1 mg/kg/compound) in a solution containing 0.5% N,N′-dimethylacetamide (DMA) and 15% sulfobutyl ether β-cyclodextrin (Captisol®). Blood samples were taken from one mouse per time point and dose group until 24 hour after respective administration. The dose formulations and plasma concentrations of each compound were determined by LC-MS/MS. The pharmacokinetic parameters were determined by non-compartmental analysis using WinNonlin Professional (version 4.0.1). The elimination rate constant, λ, was estimated by linear regression analysis of the terminal slope of the logarithmic plasma concentration-time curve. The area under the plasma concentration-time curve, AUC0-t, was calculated by using the linear/logarithmic trapezoidal rule. The AUCinf was calculated with the residual area estimated as Cz/λ. The calculated plasma concentration at the last time point, Cz, was obtained from the regression equation. The oral bioavailability (F) was calculated as: Foral=(AUCinf,po/AUCinf,iv)·(Doseiv/Dosepo). Pharmacodynamic Assays
The compounds of the invention show oral bioavailability in the mouse. Using the procedures set forth in the in vivo bioavailability assay, various compounds of the invention were tested for their clearance (CL; L/h/kg), plasma half-life (t1/2; hrs) as well as oral bioavailability (F; %) after administration of the nominal dose of 1 mg/kg of each compound. Table 3 exemplifies the invention, without limiting the scope thereof.

For `COc1cccc2cc(C(=O)N3C[C@@H](C)N(Cc4ccc(F)cc4)C[C@H]3C)oc12` (racemic) [Compound A, (cis)-4-(4-Fluorobenzyl)-1-(7-methoxy-benzofuran-2-yl-carbonyl)-2,5-dimethylpiperazine, reference compound], on CCR1 receptor, the IC50 was > 1 µM. For `O=C(c1cc2ccccc2o1)N1CCN(Cc2ccc(Cl)cc2)CC1` [Compound C, 4-(4-chlorobenzyl)-1-(benzofuran-2-yl-carbonyl)-piperazine, reference compound], the IC50 on CCR1 receptor is > 1 µM. `C[C@@H]1CN(C(=O)c2cc3cc(Cl)ccc3o2)[C@@H](C)CN1Cc1ccc(F)cc1` (racemic) [Compound 4.1, (trans)-1-(5-Chloro-benzofuran-2-yl-carbonyl)-4-(4-fluorobenzyl)-2,5-dimethylpiperazine]: in data set [1], the half-life is 4.8 h, the clearance is 43.3 mL/min/kg and the F was 72%. With `Cc1ccc2cc(C(=O)N3C[C@@H](C)N(Cc4ccc(F)cc4)C[C@@H]3C)oc2c1` (racemic) [Compound 3.13, (trans)-4-(4-Fluorobenzyl)-1-(6-methyl-benzofuran-2-yl-carbonyl)-2,5-dimethylpiperazine], the IC50 on CCR1 receptor turned out to be 0.02 µM. On to `C[C@@H]1CN(C(=O)c2cc3cc(Br)ccc3o2)[C@@H](C)CN1Cc1ccc(F)cc1` (racemic) [Compound 3.1, (trans)-1-(5-Bromo-benzofuran-2-yl-carbonyl)-4-(4-fluorobenzyl)-2,5-dimethylpiperazine], for which the IC50 on CCR1 receptor was determined as 0.012 µM. In data set [1], this compound had a half-life of 7 h, a clearance of 15 mL/min/kg and an F of 53%. Take `C[C@@H]1CN(C(=O)c2cc3cc(Cl)c(Cl)cc3[nH]2)[C@@H](C)CN1Cc1ccc(F)cc1` (racemic) [Compound 3.20, (trans)-(5,6-Dichloro-indol-2-yl-carbonyl)-4-(4-fluorobenzyl)-2,5-dimethylpiperazine]: on CCR1 receptor, the IC50 stood at 0.015 µM. For `COc1cccc2cc(C(=O)N3C[C@@H](C)N(Cc4ccc(F)cc4)C[C@@H]3C)oc12` (racemic) [Compound D, (trans)-4-(4-Fluorobenzyl)-1-(7-methoxy-benzofuran-2-yl-carbonyl)-2,5-dimethylpiperazine, reference compound], on CCR1 receptor, the IC50 was > 1 µM.
